In patent US6737383B1, “Herbicidal oxadiazolidines” (priority 1999, dated 2004):

Legend:
bedstraw = assay: Test B pre/postemergence bedstraw; assay type: in vivo, Galium aparine; conditions: Postemergence, 10 is complete control
Outline: (§1)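 Response is a visual 0-to-10 score relative to untreated plants, where 0 means no effect and 10 means complete control, taken twelve to sixteen days after application. Treatments went onto soil at planting and onto foliage of 1- to 4-leaf plants, using a surfactant-containing non-phytotoxic solvent.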

blackgrass = assay: Test B pre/postemergence blackgrass; assay type: in vivo, Alopecurus myosuroides
Outline: as §1

surinam grass = assay: Test B pre/postemergence surinam grass; assay type: in vivo, Brachiaria decumbens
Outline: as §1

cocklebur = assay: Test B pre/postemergence cocklebur; assay type: in vivo, Xanthium strumarium
Outline: as §1

crabgrass = assay: Test B pre/postemergence crabgrass; assay type: in vivo, Digitaria sanguinalis
Outline: as §1

giant foxtail = assay: Test B pre/postemergence giant foxtail; assay type: in vivo, Setaria faberii
Outline: as §1

morningglory = assay: Test B pre/postemergence morningglory; assay type: in vivo, Ipomoea hederacea
Outline: as §1

pigweed = assay: Test B pre/postemergence pigweed; assay type: in vivo, Amaranthus retroflexus
Outline: as §1

soybean = assay: Test B pre/postemergence soybean; assay type: in vivo, Glycine max
Outline: as §1

velvetleaf = assay: Test B pre/postemergence velvetleaf; assay type: in vivo, Abutilon theophrasti
Outline: as §1

wheat = assay: Test B pre/postemergence wheat; assay type: in vivo, Triticum aestivum
Outline: as §1

wild oat = assay: Test B pre/postemergence wild oat; assay type: in vivo, Avena fatua
Outline: as §1

purple nutsedge = assay: Test B pre/postemergence purple nutsedge; assay type: in vivo, Cyperus rotundus
Outline: as §1

rice = assay: Test B flood test rice; assay type: in vivo, Oryza sativa
Outline: (§2)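 Read-out is a visual response score from 0 (no effect) to 10 (complete control), assigned by comparison with untreated controls. Treatment was applied at the 2-leaf stage, and plants stayed in the greenhouse for twelve to sixteen days before scoring.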

smallflower flatsedge = assay: Test B flood test smallflower flatsedge; assay type: in vivo, Cyperus difformis
Outline: as §2

bamyardgrass = assay: Test B flood test barnyardgrass; assay type: in vivo, Echinochloa crus-galli
Outline: as §2

[1] = Postemergence, Rate 62 g/ha, scale 0 to 10, 0 is no effect, 10 is complete control
[2] = Postemergence, Rate 125 g/ha, scale of 0 to 10 where 0 is no effect and 10 is complete control
[3] = Postemergence, Rate 250 g/ha, scale of 0 to 10, 0 is no effect, 10 is complete control
[4] = Postemergence, Rate 500 g/ha, scale of 0 to 10 where 0 is no effect and 10 is complete control
[5] = Preemergence, Rate 62 g/ha, scale of 0 to 10 where 0 is no effect and 10 is complete control
[6] = Preemergence, Rate 125 g/ha, scale of 0 to 10 where 0 is no effect and 10 is complete control
[7] = Preemergence, Rate 250 g/ha, scale 0 to 10 (0 no effect, 10 complete control)
[8] = Preemergence, Rate 500 g/ha, scale of 0 to 10 where 0 is no effect and 10 is complete control
[9] = Rate 62 g/ha, flood test species, Pre-emergence, visual evaluation after twelve to sixteen days
[10] = Rate 125 g/ha, under heading Pre-emergence, flood test species, visual evaluation after twelve to sixteen days
[11] = Rate 250 g/ha, Pre-emergence (flood test species), scale 0 to 10, 0 is no effect, 10 is complete control
[12] = Rate 500 g/ha, Pre-emergence section of Table B, 0 to 10 scale (0 no effect, 10 complete control)

CC(C)N(C(=O)n1oc(=O)n(Cc2nnc(Cl)s2)c1=O)c1ccc(F)cc1F [Compound 645]
Plant response rating, Bedstraw (bedstraw; Rate 62 g/ha, scale 0 to 10, 0 is no effect): 0 | Bedstraw plant response rating (bedstraw; Rate 250 g/ha, scale of 0 to 10, 0 is no effect): 0 | Plant response rating, Blackgrass (blackgrass; [1]): 0 | Blackgrass plant response rating (blackgrass; [2]): 0 | Blackgrass plant response rating (blackgrass; [3]): 0 | Plant response rating, Blackgrass (blackgrass; [4]): 0 | Blackgrass plant response rating (blackgrass; [5]): 0 | Blackgrass plant response rating (blackgrass; [6]): 0 | Plant response rating, Blackgrass (blackgrass; [7]): 0 | Plant response rating, Blackgrass (blackgrass; [8]): 0 | Plant response rating, B. signalgrass (surinam grass; [1]): 0 | Plant response rating, B. signalgrass (surinam grass; [2]): 0 | B. signalgrass plant response rating (surinam grass; [3]): 0 | Plant response rating, B. signalgrass (surinam grass; [4]): 0 | B. signalgrass plant response rating (surinam grass; [5]): 0 | B. signalgrass plant response rating (surinam grass; [6]): 0 | Plant response rating, B. signalgrass (surinam grass; [7]): 0 | Plant response rating, B. signalgrass (surinam grass; [8]): 0 | Plant response rating, Cocklebur (cocklebur; [1]): 0 | Cocklebur plant response rating (cocklebur; [2]): 0 | Cocklebur plant response rating (cocklebur; [3]): 3 | Plant response rating, Cocklebur (cocklebur; [4]): 7 | Cocklebur plant response rating (cocklebur; [5]): 0 | Cocklebur plant response rating (cocklebur; [6]): 0 | Plant response rating, Cocklebur (cocklebur; [7]): 0 | Plant response rating, Cocklebur (cocklebur; [8]): 0 | Plant response rating, Crabgrass (crabgrass; [1]): 0 | Crabgrass plant response rating (crabgrass; [2]): 0 | Crabgrass plant response rating (crabgrass; [3]): 0 | Plant response rating, Crabgrass (crabgrass; [4]): 3 | Crabgrass plant response rating (crabgrass; [5]): 2 | Crabgrass plant response rating (crabgrass; [6]): 3 | Plant response rating, Crabgrass (crabgrass; [7]): 4 | Plant response rating, Crabgrass (crabgrass; [8]): 5 | Plant response rating, Giant foxtail (giant foxtail; [1]): 0 | Giant foxtail plant response rating (giant foxtail; [2]): 0 | Giant foxtail plant response rating (giant foxtail; [3]): 0 | Plant response rating, Giant foxtail (giant foxtail; [4]): 2 | Giant foxtail plant response rating (giant foxtail; [5]): 1 | Giant foxtail plant response rating (giant foxtail; [6]): 2 | Plant response rating, Giant foxtail (giant foxtail; [7]): 5 | Plant response rating, Giant foxtail (giant foxtail; [8]): 7 | Plant response rating, Morningglory (morningglory; [1]): 0 | Morningglory plant response rating (morningglory; [2]): 0 | Morningglory plant response rating (morningglory; [3]): 1 | Plant response rating, Morningglory (morningglory; [4]): 3 | Morningglory plant response rating (morningglory; [5]): 0 | Morningglory plant response rating (morningglory; [6]): 0 | Plant response rating, Morningglory (morningglory; [7]): 0 | Plant response rating, Morningglory (morningglory; [8]): 0 | Plant response rating, Redroot pigweed (pigweed; [1]): 0 | Redroot pigweed plant response rating (pigweed; [2]): 2 | Redroot pigweed plant response rating (pigweed; [5]): 0 | Redroot pigweed plant response rating (pigweed; [6]): 0 | Plant response rating, Redroot pigweed (pigweed; [7]): 0 | Plant response rating, Redroot pigweed (pigweed; [8]): 4 | Plant response rating, Soybean (soybean; [1]): 1 | Soybean plant response rating (soybean; [2]): 1 | Soybean plant response rating (soybean; [5]): 0 | Soybean plant response rating (soybean; [6]): 0 | Plant response rating, Soybean (soybean; [7]): 0 | Plant response rating, Soybean (soybean; [8]): 0 | Plant response rating, Velvetleaf (velvetleaf; [1]): 0 | Velvetleaf plant response rating (velvetleaf; [2]): 0 | Velvetleaf plant response rating (velvetleaf; [5]): 0 | Velvetleaf plant response rating (velvetleaf; [6]): 0 | Plant response rating, Velvetleaf (velvetleaf; [7]): 0 | Plant response rating, Velvetleaf (velvetleaf; [8]): 0 | Plant response rating, Wheat (wheat; [1]): 0 | Wheat plant response rating (wheat; [2]): 0 | Wheat plant response rating (wheat; [5]): 0 | Wheat plant response rating (wheat; [6]): 0 | Plant response rating, Wheat (wheat; [7]): 0 | Plant response rating, Wheat (wheat; [8]): 0 | Plant response rating, Wild oats (wild oat; [1]): 0 | Wild oats plant response rating (wild oat; [2]): 0 | Wild oats plant response rating (wild oat; [5]): 0 | Wild oats plant response rating (wild oat; [6]): 0 | Plant response rating, Wild oats (wild oat; [7]): 0 | Plant response rating, Wild oats (wild oat; [8]): 0 | Plant response rating, Nutsedge (purple nutsedge; [1]): 0 | Nutsedge plant response rating (purple nutsedge; [2]): 0 | Nutsedge plant response rating (purple nutsedge; [5]): 0 | Nutsedge plant response rating (purple nutsedge; [6]): 0 | Plant response rating, Nutsedge (purple nutsedge; [7]): 0 | Plant response rating, Nutsedge (purple nutsedge; [8]): 0 | Plant response rating, Rice (0 to 10 scale, 0 is no effect, 10 is complete control) (rice; [9]): 0 | Rice plant response rating (0 to 10 scale, 0 is no effect, 10 is complete control) (rice; [10]): 0 | Rice plant response rating (rice; [11]): 0 | Rice plant response rating (rice; [12]): 0 | Plant response rating, S. Flatsedge (0 to 10 scale, 0 is no effect, 10 is complete control) (smallflower flatsedge; [9]): 0 | S. Flatsedge plant response rating (0 to 10 scale, 0 is no effect, 10 is complete control) (smallflower flatsedge; [10]): 0 | S. Flatsedge plant response rating (smallflower flatsedge; [11]): 0 | S. Flatsedge plant response rating (smallflower flatsedge; [12]): 0 | Plant response rating, Barnyardgrass (0 to 10 scale, 0 is no effect, 10 is complete control) (bamyardgrass; [9]): 0 | Barnyardgrass plant response rating (0 to 10 scale, 0 is no effect, 10 is complete control) (bamyardgrass; [10]): 0 | Barnyardgrass plant response rating (bamyardgrass; [11]): 0 | Barnyardgrass plant response rating (bamyardgrass; [12]): 0
